The results in this text go back to patent US12054560B2, “Bifunctional molecules recruiting antibodies and targeting cancer cells” (JIANGNAN UNIVERSITY, priority 2017, dated 2024).

Square brackets hold non-standard residues; d marks the D form. Primed or numbered codes have the meaning given here. Side chains are listed from the residue outwards. oligo‑glycol (n:2) = oligo-glycol tether (n=2) linking D-Lys(N3) to alkynyl rhamnose by click reaction; oligo‑glycol (n:5) = oligo-glycol tether (n=5) linking D-Lys(N3) to alkynyl rhamnose by click reaction; dLys(N3)′ = its azide, alkyne or alkene has reacted where a group follows in round brackets; rhamnose derivative = not defined here; click linkage = not defined here; pGlu = O=C1CC[C@@H](C(=O)O)N1

The subject of experiment [1] is MCF7 cells (LHRH-R positive). Briefly: Flow cytometry, recruitment of anti-Rha antibody on MCF7 cells. The note with it: 250 nM, anti-Rha antibody 20 μg/mL, FIG. 7. In kind it is cell-based. The procedure: (§1) Commercialized MCF7 cells (LHRH-R positive) and UCI-107(LHRH-R negative) were grown in DMEM supplemented with 10% FBS, 1% penicillin-streptomycin. All cells were cultured at 37° C. in a 5% CO2 humidified atmosphere.
(1) Cells were cultured and detached with trypsin-EDTA and then resuspended to 1.0×10^5 cells/mL. Forty thousand of these cells were added into sterile centrifuge tubes. (2) LHRH, LHRH-Rha, LHRH-TEG-Rha and LHRH-HEG-Rha compounds were added at a final concentration of 250 nM. For the blank group (Negative), the corresponding volume of PBS was added. And anti-Rha antibody at a final concentration of 20 μg/mL in all groups. These cells were incubated on ice for 60 min, washed with flow cytometry buffer. And fluorescent secondary antibody was immediately added in all groups. These cells were incubated on ice for 30 min, (3) washed with flow cytometry buffer and then analyzed using an Accuri C6 flow cytometer.
In general terms: In flow cytometry, cells or beads pass a laser one at a time.

Experiment [2] deals with MCF7 cells (LHRH-R positive). Briefly: ADCC experiment on MCF7 cells. It is filed as cell-based. The note with it: MCF-7 cells, 250 nM, anti-Rha antibody, PBMC, LDH method, FIG. 7. As to the method:
as §1
(1) MCF7 or UCI-107 cells were seeded in 96-well plates at a concentration of 10,000 cells/well and then treated with LHRH, LHRH-Rha, LHRH-TEG-Rha and LHRH-HEG-Rha at a final concentration of 250 nM and a certain concentration of anti-Rha antibody. (2) Following the incubation period, freshly extracted PBMC cells were added at a certain effective target ratio, (3) and the supernatant was treated by centrifugation for minutes, using LDH method to measure the cytotoxicity.

The subject of experiment [3] is MCF7 cells (LHRH-R positive). As to the kind of experiment: CDC experiment on MCF7 cells. It is filed as cell-based. The conditions noted are these: MCF-7 cells, 250 nM, anti-Rha antibody, 10% rabbit complement, cck8 kit, FIG. 7. The procedure: as §1
(1) MCF7 cells or UCI-107 were seeded in 96-well plates at a concentration of 5000 cells/well and then treated with LHRH, LHRH-Rha, LHRH-TEG-Rha and LHRH-HEG-Rha at a final concentration of 250 nM and a certain concentration of anti-Rha antibody. Following the incubation at 37° C. for 2 h, next, diluted rabbit complement at a final concentration of 10% were added to each well. Following the incubation at 37° C. for 1 h, the results detected using cck8 kit.

For experiment [4], the system named is HEK-293 (high expression of integrin αvβ3). Briefly: Flow cytometry on HEK-293 cells. It is filed as cell-based. The note with it: FIG. 11. As to the method: (§2) Cell assay implementation: cell culture: commercial cells HEK-293 (high expression of integrin αvβ3), SKOV-3 (high expression of integrin αvβ3, αvβ 5), and HT-29 (high expression of integrin αvβ5) was cultured in DMEM complete medium. All cell culture conditions were 37° C., 5% CO2. Flow cytometry assay: (1) The cells were digested with trypsin, resuspended in flow medium diluted to 1×10^5 cells. 400 μL of cells (40,000 cells) were added to a sterile EP tube. (2) RGD analogues (SEQ ID NO:9), RGD-DNP and RGD-linker-DNP compounds were added […], incubate on ice for 1 h. Then the cells were washed and incubated with fluorescent secondary antibody for 0.5 h. (3) the cells were thoroughly washed gently with a flow buffer, resuspended, and analyzed by instruments.

Experiment [5] deals with SKOV-3 (high expression of integrin αvβ3, αvβ 5). As to the kind of experiment: Flow cytometry on SKOV-3 cells. The note with it: FIG. 11. It is filed as cell-based. As to the method:
as §2

In experiment [6] the test system is HT-29 (high expression of integrin αvβ5). Briefly: Flow cytometry on HT-29 cells. It is filed as cell-based. The conditions noted are these: FIG. 11. As to the method:
as §2

The subject of experiment [7] is HEK-293 cells. Briefly: ADCC assay on HEK-293 cells. The conditions noted are these: 250 nM, anti-DNP antibody, PBMC, LDH method, FIG. 11. It is filed as cell-based. As to the method: ADCC assay implementation: (1) HEK-293, SKOV-3, HT-29 cells were seeded in 96-well plates at a concentration of 10,000 cells/well. After the cells were fully attached, added with RGD analogues (SEQ ID NO:9), RGD-DNP and RGD-linker-DNP compounds at a final concentration of 250 nM and immediately added a certain concentration of anti-DNP antibody. (2) After incubation for a period of time, freshly extracted PBMC cells were added at a certain effect target ratio for a certain period of time. (3) The supernatant was removed by centrifugation, and cytotoxicity was measured by the LDH method.

In experiment [8] the test system is HEK-293 cells. As to the kind of experiment: CDC assay on HEK-293 cells. The note with it: 250 nM, anti-DNP antibody, 10% complement, cck8 method, FIG. 11. It is filed as cell-based. As to the method: CDC assay implementation: (1) HEK-293, SKOV-3, HT-29 cells were seeded in 96-well plates at a concentration of 5,000 cells/well. After the cells were fully attached, added with RGD analogues (SEQ ID NO:9), RGD-DNP and RGD-linker-DNP compounds at a final concentration of 250 nM and added a certain concentration of anti-DNP antibody at the same time. After 2 hours of incubation at 37° C., a final concentration of 10% of the complement solution was added and incubated for 1 hour at 37° C. After the incubation, the cell viability was measured by the cck8 method.

The target of another experiment is T1, HER2 (UniProt P04626 23-1255, limits assumed).
T1 construct: whole, on cells; also called human epidermal growth factor receptor 2; HER2 (on SKBR3 cells)
Briefly: flow cytometry on SKBR3 cells at 250 nM, detected with Alexa 488 rabbit anti-Rha IgG.

The test system of experiment [9] is SKBR3 cells. As to the kind of experiment: ADCC assay on SKBR3 cells. It is filed as cell-based. The note with it: rabbit anti-Rha IgG, human peripheral blood mononuclear cells, LDH kit, FIG. 6(A). The procedure:
(§3) SKBR3 (HER2 positive) and MCF7 cells (HER2 negative) were grown in DMEM supplemented with 10% FBS, 1% penicillin-streptomycin. All cells were cultured at 37° C. in a 5% CO2 humidified atmosphere.
(1) SKBR3 cells were seeded in 96-well plates at a concentration of 10,000 cells/well and then treated with C7b and Rha conjugated C7b in the presence of rabbit anti-Rha IgG antibodies. (2) Next, freshly isolated human peripheral blood mononuclear cells were added to each well. (3) Following the incubation period, the supernatant was transferred onto a new black 96-well and detected using LDH kit.

In experiment [10] the test system is SKBR3 cells. As to the kind of experiment: CDC assay on SKBR3 cells. In kind it is cell-based. The conditions noted are these: 20% normal human serum, cck8 kit, FIG. 6(B). As to the method: as §3
(1) SKBR3 cells were seeded in 96-well plates at a concentration of 5000 cells/well and (2) then treated with C7b and Rhaconjugated C7b in the presence of 20% normal human serum (the source of anti-Rha IgG and complement). (3) Following the incubation period, the results detected using cck8 kit.

For the next experiment, the target named is T2, LHRH-R (UniProt P30968 1-328).
T2 sequence (looked up): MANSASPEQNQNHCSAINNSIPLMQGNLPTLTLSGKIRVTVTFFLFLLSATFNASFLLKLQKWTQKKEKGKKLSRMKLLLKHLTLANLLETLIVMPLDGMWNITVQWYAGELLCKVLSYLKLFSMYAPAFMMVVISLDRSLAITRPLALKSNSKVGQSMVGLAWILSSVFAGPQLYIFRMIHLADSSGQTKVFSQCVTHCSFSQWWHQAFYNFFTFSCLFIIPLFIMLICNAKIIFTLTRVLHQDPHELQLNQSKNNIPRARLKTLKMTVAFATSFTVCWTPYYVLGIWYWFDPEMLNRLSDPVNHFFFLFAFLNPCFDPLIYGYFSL
Briefly: cell-based or functional assay.

With “LHRH-Rha: [6-D-Lys(N3)]-LHRH peptide click-coupled to rhamnose derivative, oligo-glycol linker n=0 ([pGlu]HWSYKLRPG-NH2; not fully specified (residue 6); printed as Glp-His-Trp-Ser-Tyr-D-Lys(N3)-Leu-Arg-Pro-Gly-NH2; also: rhamnose derivative attached via click (triazole) to D-Lys6, oligo-glycol n=0, structure in drawing)”, in [1], the “recruitment of anti-Rha antibodies to MCF-7 tumor cells” value (shortened to “recruitment of anti-Rha antibodies”) is “could recruit anti-Rha antibodies”. Further, the ADCC-mediated killing rate result in [2] was “about 33%”. In addition, the CDC-mediated killing rate result in experiment [3] is “about 26%”.
Regarding “LHRH-TEG-Rha: [6-D-Lys(N3)]-LHRH peptide click-coupled to rhamnose derivative, oligo-glycol linker n=2 ([pGlu]HWSY[dLys(N3)′]([click linkage-oligo‑glycol n:2-rhamnose derivative])LRPG-NH2; reading uncertain; also: rhamnose derivative attached via click (triazole) to D-Lys6, oligo-glycol n=2, structure in drawing)”, the “recruitment of anti-Rha antibodies” value in experiment [1] is given as “could recruit anti-Rha antibodies”. Besides, the ADCC-mediated killing rate entry in experiment [2] is listed as “about 33%”. The CDC-mediated killing rate entry in [3] is given as “about 26%”.
Take “RGD-linker-DNP: DNP coupled through a linker to cyclic RGD analogue Cyclo-(DFKRG), long connecting arm (cyclo(DFKRG); also: DNP conjugated via long linker (site only in drawing))”: the binding to cells result in [4], in experiment [5] and in experiment [6] was “can bind” in each case. The ADCC kill rate in the experiment with HEK-293 cells [7] is listed as 38%. This molecule also registered a CDC kill rate with HEK-293 cells [8] of 42%.
For “RGD-DNP: DNP coupled to cyclic RGD analogue Cyclo-(DFKRG), short connecting arm (cyclo(DFKRG); also: DNP conjugated (site only in drawing))”, the binding to cells entry in experiment [4], in experiment [5] and in experiment [6] was “can bind” each time. In the experiment on HEK-293 cells [7], this molecule gave an ADCC kill rate of 18%. This molecule displayed a CDC kill rate with HEK-293 cells [8] of 21%.
On to “LHRH-HEG-Rha: [6-D-Lys(N3)]-LHRH peptide click-coupled to rhamnose derivative, oligo-glycol linker n=5 ([pGlu]HWSY[dLys(N3)′]([click linkage-oligo‑glycol n:5-rhamnose derivative])LRPG-NH2; reading uncertain; also: rhamnose derivative attached via click (triazole) to D-Lys6, oligo-glycol n=5, structure in drawing)”, for which the “recruitment of anti-Rha antibodies” value in experiment [1] is listed as “could recruit anti-Rha antibodies”. Further, in experiment [2], the ADCC-mediated killing rate entry is “about 33%”. Also, the CDC-mediated killing rate entry in [3] was “about 26%”.

B1: C7b-triEGRha (VHH)
VHH: QVQLVQSGGGLVQAGGSLRLSCAASGRTFSSYAMAWFRQAPGKEREFVAAISWSGANIYVADSVKGRFTISRDNAKDTVYLQMNSLKPEDTAVYYCAVKLGFAPVEERQYDYWGQGTQVTVSS
modifications: C-terminal LPETGG motif ligated by sortase A (enhanced SrtA) to GGG-triEGRha (triethylene glycol-rhamnose)
notes: also called Rha conjugated C7b
For the molecule B1, in the experiment with HER2, the binding result is recorded as “binds”.

B2: C7b-hexEGRha (VHH)
VHH: B1 VHH
modifications: C-terminal LPETGG motif ligated by sortase A (enhanced SrtA) to GGG-hexEGRha (hexaethylene glycol-rhamnose)
notes: as for B1
For B2, in the experiment with HER2, the binding result was “binds”.

B3: C7b-triEGRha: nanobody C7b linked by SrtA to small molecule GGG-triEGRha (conjugate)
VHH: MQVQLVQSGGGLVQAGGSLRLSCAASGRTFSSYAMAWFRQAPGKEREFVAAISWSGANIYVADSVKGRFTISRDNAKDTVYLQMNSLKPEDTAVYYCAVKLGFAPVEERQYDYWGQGTQVTVSSLPETGG
The molecule B3 had an ADCC efficacy in the experiment with SKBR3 cells [9] of 32%. The same molecule yielded a CDC efficacy in the experiment on SKBR3 cells [10] of 36%.

B4: C7b-hexEGRha: nanobody C7b linked by SrtA to small molecule GGG-hexEGRha (conjugate)
VHH: B3 VHH
Molecule B4 showed an ADCC efficacy in the experiment on SKBR3 cells [9] of 43%. In addition, in the experiment on SKBR3 cells [10], the CDC efficacy was 47%.
In the experiment with LHRH-R, [pGlu]HWSY[dLys(N3)′](rhamnose)LRPG-NH2 [LHRH-Rha] displayed an ADCC-mediated killing rate of about 33% and a CDC-mediated killing rate of about 26%.
Consider [pGlu]HWSY[dLys(N3)′]([oligo‑glycol (n:2)-rhamnose])LRPG-NH2 [LHRH-TEG-Rha], for which, in the experiment with LHRH-R, the ADCC-mediated killing rate is about 33% and the CDC-mediated killing rate is about 26%.
The like results for [pGlu]HWSY[dLys(N3)′]([oligo‑glycol (n:5)-rhamnose])LRPG-NH2 [LHRH-HEG-Rha] were, in that order, about 33% and about 26%.
